Measurements from patent US6706663B2, “Herbicidal 3-heterocyclic substituted benzisothiazole and benzisoxazole compounds” (Wyeth, priority 2000, dated 2004).

Experiments:
[1] = tested on: ABUTH (Abutilon theophrasti); test: Postemergence herbicidal evaluation; format: in vivo, Medic.
Outline: (§1)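 Seedlings grown for about two weeks were sprayed postemergence and then kept under standard greenhouse care. Injury was rated visually 4–5 weeks after treatment on a 0–9 scale against untreated controls, and ratings from repeat tests were averaged.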

GALAP (Galium aparine) = test: Postemergence herbicidal evaluation; format: in vivo
Outline: as §1

[2] = tested on: IPOHE (Ipomoea hederacea); test: Postemergence herbicidal evaluation; format: in vivo, (L.) Jacq.
Outline: as §1

[3] = tested on: ECHCG (Echinochloa crus-galli); test: Postemergence herbicidal evaluation; format: in vivo, (L.) Beau
Outline: as §1

SETVI (Setaria viridis) [4] = test: Postemergence herbicidal evaluation; format: in vivo, (L.) Beau
Outline: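 Visual injury score (0-9: stand, vigor, malformation, size, chlorosis, overall appearance vs untreated control) taken four to five weeks post-spray. Two-week-old seedlings received about 0.0040 to 1.000 kg/ha active compound in acetone/water with 0.5% TWEEN 20.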

[5] = tested on: GLXMAW (Soybean, Williams); test: Postemergence herbicidal evaluation; format: in vivo, Glycine max, (L.) Merr. cv Williams
Outline: as §1

ORYSAT (Rice, Tebonnet) [6] = test: Postemergence herbicidal evaluation; format: in vivo, Oryza sativa, (L.) Tebonnet
Outline: as §1

ZEAMX (Corn, Field) = test: Postemergence herbicidal evaluation; format: in vivo, Zea mays, L.
Outline: as §1

[7] = tested on: AMBEL (Ambrosia artemisifolia); test: Preemergence herbicidal evaluation; format: in vivo, L.; conditions: preemergence, rated 4-5 weeks after treatment
Outline: (§2)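 Each species was sown separately in potting soil over roughly one inch of soil, and the surface sprayed with compound dissolved in aqueous acetone. Assessment used a 0–9 visual scale against a control after four to five weeks.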

[8] = tested on: CASOB (Cassia obtusifolia); test: Preemergence herbicidal evaluation; format: in vivo, L.; conditions: preemergence, rated 4-5 weeks after treatment
Outline: as §2

[9] = tested on: CHEAL (Chenopodium album); test: Preemergence herbicidal evaluation; format: in vivo, L.; conditions: preemergence, rated 4-5 weeks after treatment
Outline: as §2

[10] = tested on: IPOHE (Ipomoea hederacea); test: Preemergence herbicidal evaluation; format: in vivo, (L.) Jacq.; conditions: preemergence, rated 4-5 weeks after treatment
[11] = tested on: ECHCG (Echinochloa crus-galli); test: Preemergence herbicidal evaluation; format: in vivo, (L.) Beau; conditions: preemergence, rated 4-5 weeks after treatment
Outline: as §2

SETVI (Setaria viridis) [12] = test: Preemergence herbicidal evaluation; format: in vivo, (L.) Beau; conditions: preemergence, rated 4-5 weeks after treatment
Outline: as §2

ORYSAT (Rice, Tebonnet) [13] = test: Preemergence herbicidal evaluation; format: in vivo, Oryza sativa, (L.) Tebonnet; conditions: preemergence, rated 4-5 weeks after treatment
[14] = tested on: ECHORC (Echinochloa oryzoides); test: Flooded paddy, preemergence weed control; format: in vivo, Echinochloa oryzoides (Ard.) Fritsch.; conditions: rated 3-4 weeks after treatment, 0-9 rating scale
Outline: (§3)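 Plants were established from seed or propagating organs in flooded silt loam, with the water surface held 1.5 to 3 cm above the soil for the entire experiment. Injury was assessed visually against a control and given a 0-9 score.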

CYPIR (Cyperus iria) = test: Flooded paddy, preemergence weed control; format: in vivo; conditions: rated 3-4 weeks after treatment, 0-9 rating scale
Outline: as §3

[15] = tested on: MOOVA (Monochoria vaginalis); test: Flooded paddy, preemergence weed control; format: in vivo, Presl.; conditions: rated 3-4 weeks after treatment, 0-9 rating scale
Outline: as §3

[16] = tested on: SAGPY (Sagittaria pygmaea); test: Flooded paddy, preemergence weed control; format: in vivo, L.; conditions: rated 3-4 weeks after treatment, 0-9 rating scale
Outline: as §3

ORYSAT (Rice, Tebonnet) [17] = test: Flooded paddy, post-transplant rice tolerance; format: in vivo, Oryza sativa, (L.) Tebonnet; conditions: flooded paddy, post-transplant rice; rate 0.0320 kg/ha; rated 3-4 weeks after treatment; 0-9 rating scale
Outline: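 Visual 0-9 rating against a control, covering stand, vigor, malformation, size, chlorosis and overall appearance. Treatment was applied after transplanting paired ten-day-old seedlings into flooded silt loam, with water kept 1.5 to 3 cm deep on greenhouse benches.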

## Cn1c(C(F)(F)F)cc(=O)n(-c2ccc3snc(C4SCCS4)c3c2)c1=O [Compound 24, 3-[3-(1,3-dithiolan-2-yl)-1,2-benzisothiazol-5-yl]-1-methyl-6-(trifluoromethyl)uracil]
[1]; rate 0.0320 kg/ha
  Postemergence herbicidal rating, ABUTH: 9.0
[1]; rate 0.0620 kg/ha
  Postemergence herbicidal rating, ABUTH: 9.0
GALAP (Galium aparine); rate 0.0320 kg/ha
  Postemergence herbicidal rating, GALAP: 3.0
GALAP (Galium aparine); rate 0.0620 kg/ha
  Postemergence herbicidal rating, GALAP: 4.0
[2]; rate 0.0320 kg/ha
  Postemergence herbicidal rating, IPOHE: 9.0
[2]; rate 0.0620 kg/ha
  Postemergence herbicidal rating, IPOHE: 9.0
[3]; rate 0.0320 kg/ha
  Postemergence herbicidal rating, ECHCG: 0.0
[3]; rate 0.0620 kg/ha
  Postemergence herbicidal rating, ECHCG: 2.0
SETVI (Setaria viridis) [4]; rate 0.0320 kg/ha
  Postemergence herbicidal rating, SETVI: 0.0
SETVI (Setaria viridis) [4]; rate 0.0620 kg/ha
  Postemergence herbicidal rating, SETVI: 3.0
[5]; rate 0.0320 kg/ha
  Postemergence herbicidal rating, GLXMAW: 8.0
[5]; rate 0.0620 kg/ha
  Postemergence herbicidal rating, GLXMAW: 8.5
ORYSAT (Rice, Tebonnet) [6]; rate 0.0320 kg/ha
  Postemergence herbicidal rating, ORYSAT: 2.0
ORYSAT (Rice, Tebonnet) [6]; rate 0.0620 kg/ha
  Postemergence herbicidal rating, ORYSAT: 2.5
ZEAMX (Corn, Field); rate 0.0320 kg/ha
  Postemergence herbicidal rating, ZEAMX: 5.5
ZEAMX (Corn, Field); rate 0.0620 kg/ha
  Postemergence herbicidal rating, ZEAMX: 6.0
[7]; Rate 0.0620 kg/ha
  AMBEL preemergence herbicidal rating: 4.5
[7]; Rate 0.1250 kg/ha
  AMBEL preemergence herbicidal rating: 8.0
[7]; Rate 0.2500 kg/ha
  AMBEL preemergence herbicidal rating: 9.0
[8]; Rate 0.0620 kg/ha
  CASOB preemergence herbicidal rating: 0.0
[8]; Rate 0.1250 kg/ha
  CASOB preemergence herbicidal rating: 0.0
[8]; Rate 0.2500 kg/ha
  CASOB preemergence herbicidal rating: 3.0
[9]; Rate 0.0620 kg/ha
  CHEAL preemergence herbicidal rating: 7.5
[9]; Rate 0.1250 kg/ha
  CHEAL preemergence herbicidal rating: 9.0
[9]; Rate 0.2500 kg/ha
  CHEAL preemergence herbicidal rating: 9.0
[10]; Rate 0.0620 kg/ha
  IPOHE preemergence herbicidal rating: 2.0
[10]; Rate 0.1250 kg/ha
  IPOHE preemergence herbicidal rating: 6.5
[10]; Rate 0.2500 kg/ha
  IPOHE preemergence herbicidal rating: 7.0
[11]; Rate 0.0620 kg/ha
  ECHCG preemergence herbicidal rating: 0.0
[11]; Rate 0.1250 kg/ha
  ECHCG preemergence herbicidal rating: 1.5
[11]; Rate 0.2500 kg/ha
  ECHCG preemergence herbicidal rating: 5.0
SETVI (Setaria viridis) [12]; Rate 0.0620 kg/ha
  SETVI preemergence herbicidal rating: 3.5
SETVI (Setaria viridis) [12]; Rate 0.1250 kg/ha
  SETVI preemergence herbicidal rating: 8.0
SETVI (Setaria viridis) [12]; Rate 0.2500 kg/ha
  SETVI preemergence herbicidal rating: 9.0
ORYSAT (Rice, Tebonnet) [13]; Rate 0.0620 kg/ha
  ORYSAT preemergence herbicidal rating: 0.0
ORYSAT (Rice, Tebonnet) [13]; Rate 0.1250 kg/ha
  ORYSAT preemergence herbicidal rating: 3.0
ORYSAT (Rice, Tebonnet) [13]; Rate 0.2500 kg/ha
  ORYSAT preemergence herbicidal rating: 6.0
[14]; rate 0.0320 kg/ha
  herbicidal rating, ECHORC: 5.0
[14]; rate 0.1250 kg/ha
  herbicidal rating, ECHORC: 7.0
CYPIR (Cyperus iria); rate 0.0320 kg/ha
  herbicidal rating, CYPIR: 0.0
CYPIR (Cyperus iria); rate 0.1250 kg/ha
  herbicidal rating, CYPIR: 5.0
[15]; rate 0.0320 kg/ha
  herbicidal rating, MOOVA: 5.0
[15]; rate 0.1250 kg/ha
  herbicidal rating, MOOVA: 8.0
[16]; rate 0.0320 kg/ha
  herbicidal rating, SAGPY: 0.0
[16]; rate 0.1250 kg/ha
  herbicidal rating, SAGPY: 5.0
ORYSAT (Rice, Tebonnet) [17]
  herbicidal rating, ORYSAT (rice tolerance): 0.0
